The text below walks through data of PubChem BioAssay AID504646 (Southern Research Specialized Biocontainment Screening …, 2011).

SMILES strings stand for the structures. Where “and” joins values, the source holds several entries; their conditions need not be identical. Equal values may be shown once. Calls of active or inactive are those of the source. The rule behind the calls is not given here. Peptide text beside a SMILES is read from it. * marks the point of attachment. Cbz = O=C(OCc1ccccc1)*

The test system of assay [1] is Mycobacterium tuberculosis growth in 7H9 media. Nature of the assay: M. tuberculosis growth inhibition in 7H9, dose response, 7H9 media, purified and synthesized samples, set 3 (AID 504646). The following applies: for IC90: 90% growth inhibition concentration.
Test in assay [2]: as above
The settings on record: Mycobacterium tuberculosis growth in 7H9 media; at 25 µM (top of the series).

For `CCOC(=O)CSc1ncnc2c1cnn2-c1ccccc1`, in assay [1], the IC50 is 11.2 µM and the IC90 is more than 25 µM. The corresponding values for `COC(=O)CCc1nc2c(C#N)c(-c3ccc(Cl)cc3)ccn2n1` are 2.58 µM and 3.66 µM.

On to `CCOC(=O)CSc1nc(C)c(C)c(=O)[nH]1`, for which, in assay [2], the growth inhibition is -7.78% (inactive).

In the case of `Oc1ccccc1/C=N/Nc1ccnc(SCc2ccccc2)n1`, the growth inhibition in assay [2] was 2.73% (inactive). As for `COc1ccc(-n2nnc3c(SCC(=O)OCc4ccccc4)ncnc32)cc1`, in assay [1], the IC50 is 1.63 µM and the IC90 is more than 25 µM. The corresponding values for `CC(C)NC(=O)c1sc(=S)n2c1[nH]c(=O)c1ccc(C(=O)NCCc3ccc(Cl)cc3)cc12` are 0.11 µM and 0.3 µM. The corresponding values for `CC(=O)c1ccc(NC(=O)c2ccc(CNc3c(N4CCOCC4)c(=O)c3=O)cc2)cc1` are 12.4 µM and more than 25 µM. The corresponding values for `O=C(NCCc1ccc(Cl)cc1)c1ccc(CNc2c(N3CCOCC3)c(=O)c2=O)cc1` are 4.71 µM and 6.88 µM. Consider `CCc1c(C)nc(SCC(=O)Nc2ccc3c(c2)OCCO3)[nH]c1=O`, for which, in assay [1], the IC50 is 14.1 µM and the IC90 is more than 25 µM. `CC(=NCc1ccc2c(c1)OCO2)C1=C(O)c2ccccc2C1=O`: in assay [1], the IC50 is 0.95 µM and the IC90 is more than 25 µM. The corresponding values for `Cc1ccc2c(c1)c(C1=c3ccccc3=NC1=O)c(O)n2C` are 0.84 µM and 3.12 µM. The corresponding values for `Nc1c(C(=O)NC2CCCCC2)nsc1C(=O)OCC(=O)NC1CCCCC1` are 1.11 µM and 2.46 µM.

Take `CCOc1ccc(NC(=O)CSc2nc(O)c(C)c(=O)n2-c2ccc(F)cc2)cc1`: in assay [1], the IC50 was 18.6 µM and the IC90 was more than 25 µM. Consider `O=C(NCC(c1cccs1)N1CCOCC1)c1cc([N+](=O)[O-])cc([N+](=O)[O-])c1` (configuration not stated), for which, in assay [1], the IC50 was 0.21 µM and the concentration for an effect of 90% (IC90) came out at 0.58 µM. With `O=C(c1ccc(CNc2c(N3CCCC3)c(=O)c2=O)cc1)N1CC=C(c2ccccc2)CC1`, in assay [1], the IC50 was 2.31 µM and the IC90 is more than 25 µM.

On to `CCC(Sc1ncnc2c1nnn2-c1ccc(F)cc1)C(=O)OC` (configuration not stated), for which, in assay [1], the IC50 was 9.59 µM and the IC90 was more than 25 µM. The corresponding values for `CCc1ccc(/C=C2/C(=O)N(C)C(=S)N2CC(=O)OC)s1` are 1.12 µM and 4.63 µM. The corresponding values for `CCOC(=O)CSc1ncnc2c1nnn2-c1ccc(F)cc1` are 2.46 µM and 4.35 µM. The corresponding values for `CC1CCN(C(=O)c2ccc(CNc3c(N4CCCC4)c(=O)c3=O)cc2)CC1` are 5.81 µM and 6.65 µM. For `CCOC(=O)COc1ccc(/C=C2\NC(=S)N(CC)C2=O)cc1`, in assay [1], the 50% inhibitory concentration (IC50) is 1.94 µM and the IC90 came out at 3.7 µM. The corresponding values for `S=c1nc[nH]c2nc[nH]c12` are 1.38 µM and 1.96 µM. Regarding `CC1CCCN(C(=O)C2CCC(CNc3c(N4CCCCC4)c(=O)c3=O)CC2)C1` (configuration not stated), in assay [1], the IC50 was 11.5 µM and the concentration for an effect of 90% (IC90) is more than 25 µM. Turning to `CC(C)OC(=O)CSc1ncnc2c1cnn2-c1ccccc1`, in assay [1], the IC50 is 10.5 µM and the IC90 was more than 25 µM. The corresponding values for `Cc1ccc(C(=O)N/N=C(/CC(=O)c2cccs2)C(F)(F)F)cc1` are 1.56 µM and 2.37 µM.

In the case of `O=C(CSc1nc2ccccc2c(=O)[nH]1)NC1CCCCC1`, in assay [1], the half-maximal inhibitory concentration (IC50) was 0.04 µM and the IC90 came to 0.08 µM. The corresponding values for `CC1CC(C)CN(C(=O)C2CCC(CNc3c(N4CCCCC4)c(=O)c3=O)CC2)C1` (configuration not stated) are 7.76 µM and more than 25 µM.

Turning to `O=C(CSc1nc2ccccc2c(=O)[nH]1)NCc1ccc(Cl)cc1`, in assay [1], the IC50 was 0.38 µM and 1.3 µM; the IC90 is 0.67 µM and 2.02 µM. On to `Cc1cc(Br)ccc1NC(=O)c1cnc(N2CCN(c3ccccn3)CC2)c2ccccc12`, for which, in assay [1], the IC50 was 0.28 µM and the IC90 amounted to 2.61 µM. The corresponding values for `COC(=O)C1CC(=O)N(c2ccc(OCc3ccccc3Cl)cc2)C1` (configuration not stated) are 0.47 µM and 2.74 µM. The corresponding values for `Cc1ccc(NC(=O)COC(=O)CCc2c[nH]c3ccccc23)cc1[N+](=O)[O-]` are 1.16 µM and 4.23 µM. In the case of `CCOC(=O)CSc1ncnc2c1cnn2-c1ccc(C)cc1C`, in assay [1], the IC50 is 4.63 µM and the IC90 turned out to be 7.47 µM. As to `Cc1cccc(-c2oc3ccc(-c4ccc5c(c4)OCO5)cc3c2C#Cc2cncn2C)c1`, in assay [1], the IC50 is 1.78 µM and the IC90 worked out at 2.69 µM. As for `Cc1nc(SCC(=O)NC2CCCCC2)[nH]c(=O)c1C`, in assay [1], the IC50 is 0.34 µM and 1.86 µM; the IC90 was 0.83 µM and 3.17 µM.

For `CC[N+](C)(CC)CCCCOc1ccc2c(c1)C(=O)c1cc(OCCCC[N+](C)(CC)CC)ccc1-2`, in assay [1], the half-inhibitory concentration (IC50) is 1.42 µM and the IC90 came to 1.98 µM. The corresponding values for `CCC(C)Nc1ccc(NC(C)CC)cc1` (configuration not stated) are 0.61 µM and 0.98 µM.

Consider `O=C(NCCc1ccc(Cl)cc1)C1CCC(CNc2c(N3CCCCC3)c(=O)c2=O)CC1` (configuration not stated), for which, in assay [1], the IC50 is 20.4 µM and the IC90 is more than 25 µM. The corresponding values for `O=C(/C=C\c1cccs1)N1CCN(Cc2ccc3c(c2)OCO3)CC1` are 0.94 µM and more than 25 µM. The corresponding values for `O=C(c1ccc(CNc2c(N3CCCC3)c(=O)c2=O)cc1)N1CCc2ccccc2C1` are 3.62 µM and 5.79 µM. As to `CCOC(=O)C(C)Sc1ncnc2c1nnn2-c1ccc(F)cc1` (configuration not stated), in assay [1], the half-maximal inhibitory concentration (IC50) is 0.85 µM and 3.12 µM; the IC90 was 3.42 µM and 8.23 µM. As for `CCOC1OC(=O)C(Cl)=C1Nc1ccccc1C` (configuration not stated), in assay [1], the IC50 is 2.31 µM and the IC90 is more than 25 µM.

With `CNc1nc(SCc2ccccc2Cl)nc2c1CCCC2`, in assay [1], the IC50 was 1.15 µM and the IC90 came to 3.01 µM. The corresponding values for `CC1CC(C)CN(C(=O)c2ccc(CNc3c(N4CCCC4)c(=O)c3=O)cc2)C1` (configuration not stated) are 5.14 µM and more than 25 µM. The corresponding values for `Cc1ccc2ccc3ccc(C)nc3c2n1` are 0.18 µM and 0.48 µM. Take `COc1cc(NC(=O)C/C(C)=N/NC(=O)c2ccccn2)c(OC)cc1Cl`: in assay [1], the IC50 is 1.65 µM and the IC90 is 4.49 µM.

With `O=C(CSc1nc2c(c(=O)[nH]1)CCC2)Nc1ccc(F)cc1`, in assay [1], the IC50 was 10 µM and the IC90 stood at 17.1 µM. The corresponding values for `Cc1nc(SCC(=O)NC2CCCC2)[nH]c(=O)c1C` are 7.97 µM and 13.4 µM. Turning to `COC(=O)C(C)Oc1ccc(-c2nccc(-c3ccccn3)n2)cc1` (configuration not stated), in assay [1], the half-maximal inhibitory concentration (IC50) is 2.11 µM and the IC90 turned out to be 4.13 µM. The corresponding values for `Cc1cccc(/C=C/C(=O)c2ccc([N+](=O)[O-])o2)c1` are 0.1 µM and 0.17 µM.

In turn, `O=C(c1ccc(CNc2c(N3CCCC3)c(=O)c2=O)cc1)N1CCN(C2CCCCC2)CC1` came in with an IC90 in assay [1] of more than 25 µM. For `c1ccc(/N=C2\N=C(Nc3ccccn3)c3ccccc32)nc1`, in assay [1], the IC50 was 0.16 µM and the IC90 was 0.25 µM. The corresponding values for `O=C(/C=C/c1ccccc1)N1CCN(CCN2C(=O)c3cccc4cccc(c34)C2=O)CC1` are 2.16 µM and 4.97 µM.

Turning to `CCc1c(C)nc(SCC(=O)NC2CCCC2)[nH]c1=O`, in assay [1], the IC50 is 1.5 µM and the IC90 was found to be 2.85 µM. The corresponding values for `CCOC(=O)CNC(=O)[C@H](Cc1ccccc1)NC(=O)OCc1ccccc1` (Cbz-Phe-Gly-OEt) are 1.06 µM and 2.96 µM. The corresponding values for `COC(=O)CSc1ncnc2c1cnn2-c1ccc(C)cc1C` are 4.72 µM and 7.3 µM.

In the case of `CC1CCN(C(=O)C2CCN(c3nnc(-n4cccc4)s3)CC2)CC1`, in assay [1], the IC50 was 1.55 µM and the IC90 is 2.91 µM. The corresponding values for `Cc1cc(C)n2nc(N)c(N=Nc3ccccc3)c2n1` are 2.73 µM and 3.69 µM. Compound `O=C(NCC1COc2ccccc2O1)C1CCC(CNc2c(N3CCCCC3)c(=O)c2=O)CC1` (configuration not stated) gave an IC90 in assay [1] of more than 25 µM. Consider `CCOC(=O)COn1c2c(c3c4no[n+]([O-])c4ccc31)CCCC2`, for which, in assay [1], the IC50 was 1.96 µM and the IC90 worked out at 3.17 µM. The corresponding values for `COC(=O)c1cc(=O)n(-c2ccc(F)cc2)c(=Nc2ccc(F)cc2)s1` are 0.36 µM and 1.18 µM. The corresponding values for `COC(=O)C(C)Sc1ncnc2c1nnn2-c1ccc(F)cc1` (configuration not stated) are 1.88 µM and 4.64 µM. The corresponding values for `Cc1nn2c(NCc3ccccn3)cc(C(C)C)nc2c1-c1ccccc1` are 1.22 µM and 1.73 µM.

For the compound `O=C(c1ccc(CNc2c(N3CCOCC3)c(=O)c2=O)cc1)N1CC=C(c2ccccc2)CC1`, in assay [1], the IC50 is 0.66 µM and the IC90 came out at 0.83 µM. The corresponding values for `COC(=O)C(C)Oc1ccc(Cc2ncc(C(F)(F)F)cc2Cl)cc1` (configuration not stated) are 2.66 µM and 4.35 µM. The corresponding values for `CCOC(=O)CSc1ncnc2c1cnn2-c1ccc(Cl)cc1` are 4.32 µM and more than 25 µM.

As for `CCOc1ccc(-c2cc(C)[n+](CCc3ccc(OC)c(OC)c3)c(-c3ccc(OCC)cc3)c2)cc1`, in assay [1], the IC50 was 0.6 µM and the IC90 worked out at 0.9 µM. Turning to `CC1CCCN(C(=O)c2ccc(CNc3c(N4CCCCC4)c(=O)c3=O)cc2)C1` (configuration not stated), in assay [1], the IC50 was 1.39 µM and the IC90 was more than 25 µM. As to `Cc1ccc(NC(=O)C2C3/C=C\CCCCC32)cc1C` (configuration not stated), in assay [1], the IC50 was 1.43 µM and the IC90 is more than 25 µM. The corresponding values for `COc1ccc(N2CCN(C(=O)c3ccc(CNc4c(N5CCOCC5)c(=O)c4=O)cc3)CC2)cc1` are 2.16 µM and more than 25 µM. The corresponding values for `O=C1C(Br)=Cc2cccc3cccc1c23` are 0.16 µM and 0.79 µM.

Consider `CCOC(=O)CSc1ncnc2c1cnn2-c1ccc(C)cc1`, for which, in assay [1], the IC50 is 6.95 µM and the IC90 is more than 25 µM.

With `Cc1cccc(N2CCN(C(=O)c3ccc(CNc4c(N5CCC(C)CC5)c(=O)c4=O)cc3)CC2)c1C`, in assay [1], the IC50 is 24.5 µM and the IC90 is more than 25 µM. On to `CCOC(=O)c1ccc(NC(=O)Cn2ncc(Cl)c(Cl)c2=O)cc1`, for which, in assay [1], the IC50 was 0.33 µM and the IC90 was determined as 1.2 µM. For the compound `CC(C)CCNC(=O)CSc1nc2ccccc2c(=O)[nH]1`, in assay [1], the IC50 was 1.19 µM and the IC90 is 2.35 µM.
